Laboratory results reported in US9833430B2, “Neurodegenerative disorders and methods of treatment and diagnosis thereof” (The University of Queensland, priority 2013, dated 2017).
Entries after “also recorded” stand apart in the source; their conditions may differ.

Legend:
Assay type in all cases: in vivo
hSOD1^G93A mice [1] = assay: Rotarod test, onset of balance loss
From the text: (§1) Immediately after weaning, mice were placed on either a standard diet (SF11-027, Specialty Feeds, WA, AUS) or a matched diet (SF11-028, Specialty Feeds) in which 35% of the calories were from triheptanoin oil (Sasol, Germany). All diets were matched in protein, mineral, antioxidant and vitamin content relative to their caloric densities (Thomas et al., 2012). Triheptanoin replaced sucrose, some of the complex carbohydrates and long chain fats in the diet.
(§2) Animals underwent behavioral testing approximately 3-4 hours into the light cycle. All behavioral testing was conducted in an environment with minimal stimuli so as to minimize any possible effects caused by changes in external stimuli. Animals were weighed before every test session. Mice were observed, and disease progression tracked and graded according to a neurological score sheet to ensure that any non-ALS related deaths were excluded from the study. The neurological score was adapted from criteria developed at the ALS therapy development institute (Gill et al., 2009). In accordance with ethical requirements, hSOD1^G93A mice that became too weak to reach the food hoppers were provided with wet chow on the floor of the cages. […]
The rotarod tests were conducted with 10 repeats once a week using a rotarod designed for mice (Ugo Basile, Italy). […] The time at which the animal fell off was recorded. […]

hSOD1^G93A mice [2] = assay: Body weight and onset of body weight loss in hSOD1^G93A mice
From the text: as §1
as §2, with “cages. The endpoint of the study was defined as the mouse being unable to right itself within 15 seconds after being placed on its back.” for “cages.”

hSOD1^G93A mice [3] = assay: Motor neuron counting (stereological, L2 to L5); conditions: hSOD1^G93A mice at 70 days
Description: Mice were fed with control or triheptanoin diet from 35 days until 70 days of age, when mice were anesthetized with pentobarbital (100 mg/kg i.p.), perfused with 0.9% saline followed by 4% paraformaldehyde. Spinal cords were removed and further fixed in 4% paraformaldehyde and subsequently embedded in OCT compound and serial sections of 16 μm were cut from lumbar vertebrae. Sections were washed in cold PBS and stained with 0.1% thionin in acetate buffer (pH3.4). The motor neurons were counted using stereological method as previously described (Banks et al., 2001; 2003; Forgarty et al., 2013). Briefly, motor neurons in the lateral motor column (LMC) from one side of the spinal cord were counted and only neurons that are large in size with darkly stained cytoplasm, pale nucleus and darkly stained nucleoli were counted (Clarke and Oppenheim, 1995). Every 10th section from lumbar 2 to lumbar 5 regions was counted to get the total motor neuron count which was then divided by the number of sections counted and multiplied by the total number of sections containing the LMC.

hSOD1^G93A mice [4] = assay: Survival, days taken to reach end-stage
From the text: as §1
as §2, with “cages. The endpoint of the study was defined as the mouse being unable to right itself within 15 seconds after being placed on its back.” for “cages.”

hSOD1^G93A mice [5] = assay: Hind limb grip strength test in hSOD1^G93A mice on triheptanoin diet
Description: (§3) All experiments were approved by the University of Queensland's Animal Ethics Committee and followed the guidelines of the Queensland Animal Care and Protection Act 2001. All efforts were made to minimize the suffering and the number of animals used. Wild-type and hSOD1^G93A mice (B6.Cg-Tg(SOD1*G93A)1 Gur/J, stock no. 004435, Jackson laboratory, Maine, USA), were generated by mating hSOD1^G93A males with C57B/L6 wild-type females (University of Queensland). Mice were housed in a 12 hour light, 12 hour dark cycle, and had free access to food and water. Experimenters were blinded to animal genotype (until the mice started expressing the ALS phenotype) and dietary interventions.
as §1
as §2, with “cages. The endpoint of the study was defined as the mouse being unable to right itself within 15 seconds after being placed on its back. Upon reaching end-stage or 25 weeks of age, transgenic mice and their respective wild-type littermates were euthanized with an overdose of pentobarbital (120 mg/kg, i.p., Provet, Australia). Tissues, including the m. gastrocnemius and tail, were collected for subsequent analysis.” for “cages.”
(§4) Hind limb grip strength tests were conducted twice a week using a T-bar force transducer (Ugo Basile, Italy). […] The reading on the force transducer was taken only if both hind limbs released the bar at the same time. The average of 10 trials per mouse was recorded each training session. To compare time points of grip strength loss, the time point where a loss of more than 30% of the combined mean grip strength of week 9 to 13 was recorded, if the subsequent 3 measurements were ≦70% of the original average strength.

[6] = tested on: Pdha1, Ogdh, Sdha and Mut mRNA in gastrocnemius muscle of hSOD1^G93A mice; assay: Quantitative real time PCR of metabolic genes in gastrocnemius muscle; conditions: 10 week old hSOD1^G93A mice, triheptanoin feeding
From the text: After euthanasia, the gastrocnemius muscle was quickly removed and frozen in liquid nitrogen. To extract RNA, muscle samples were pulverized in liquid nitrogen with a cold mortar and pestle, dissolved with TRI reagent (Life Technologies, CA, USA) and extracted according to the manufacturer's instructions. Contaminating DNA was removed by DNase I treatment and cDNA was synthesized using the Tetro cDNA synthesis kit (Bioline, London, UK) according to the manufacturer's instructions.
Expression of several metabolic genes was assayed (Gapdh, Pdha1, Ogdh, Sdha, Pcx, Gpt1, Gpt2, Pcca, Pccb and Mut) by quantitative real time PCR. All primers pairs (Table 1) were evaluated for efficiency using a 4 fold serial dilution series of muscle cDNA. The derived slope of each primer pair was used to calculate the efficiency by applying the formula, […]. Reactions consisted with diluted cDNA, 5 μl of SYBR Green Mastermix and 8 μM of forward and reverse primers each, and were amplified after an initial hot start. Conditions for cycling and the melt curve were identical to those described for quantitative genotyping. Samples without reverse transcriptase treatment were assayed to ensure that samples were free from DNA contamination. The fold expression (ΔCT) of the gene of interest (goi) relative to the geometric mean of housekeeping genes (Tbp, B2m and Hmbs) were calculated with a formula adapted from (Vandesompele et al., 2002) taking into consideration the individual efficiencies (E) of each primer pair.

wild-type mice = assay: Hind limb grip strength test in wild-type mice on triheptanoin diet; conditions: triheptanoin n=15 vs control n=12
Description: as §3, with “interventions. […]” for “interventions.”
as §4

Structure (SMILES): CCCCCCC(=O)OCC(COC(=O)CCCCCC)OC(=O)CCCCCC [triheptanoin, 1,3-di(heptanoyloxy)propan-2-yl heptanoate]
- time of onset of loss of balance delayed by (hSOD1^G93A mice [1]; hSOD1^G93A mice, triheptanoin vs control diet, p=0.0016): 1.6 weeks
- onset of balance loss on the rota-rod delayed by (hSOD1^G93A mice [1]; triheptanoin fed vs control fed SOD1^G93A mice, p=0.0016 (FIG. 3F legend)): 13 days
- onset of body weight loss delayed by (hSOD1^G93A mice [2]; hSOD1^G93A mice, triheptanoin feeding vs control, p=0.007): 1.6 weeks
- onset of body weight loss delayed by (hSOD1^G93A mice [2]; triheptanoin fed (n=8) vs control fed (n=5) SOD1^G93A mice, p=0.0076 (FIG. 3H legend)): 11 days
- loss of motor neurons between L2 and L5 vs wild type (hSOD1^G93A mice [3]; triheptanoin diet from 35 days (n=4), control diet 37% loss): 21%
- motor neuron numbers compared with wild type mice (hSOD1^G93A mice [3]; triheptanoin fed, n=4): not significantly different from wild type mice
- effect on survival (hSOD1^G93A mice [4]; small study): did not alter survival
- number of days taken to reach end-stage (hSOD1^G93A mice [4]; triheptanoin n=7, mean±SEM, p=0.653 vs control): 174.9 ± 3.5 days
- hind limb grip strength (upper limit over time) (hSOD1^G93A mice [5]; hSOD1^G93A mice on both diets): ≤ 400 mN
- onset of hind limb grip strength loss delayed by (hSOD1^G93A mice [5]; high copy number (19-24) hSOD1^G93A mice, diet with 35% of calories from triheptanoin vs control diet (n=8 vs n=5)): 2.8 weeks
- hind limb grip strength at 18 and 19.5 weeks of age vs control diet (hSOD1^G93A mice [5]; high copy number hSOD1^G93A mice, Bonferroni post-hoc p<0.05): higher hind limb grip strength; also recorded: significantly higher grip strength
- area under the curve for grip strength over time, increase relative to control diet (hSOD1^G93A mice [5]; high copy number hSOD1^G93A mice, triheptanoin diet vs control diet, p=0.024): 38%
- protection from reduced expression of 2-oxo-glutarate dehydrogenase (Ogdh) mRNA [6]: not
- protection from reduced expression of methylmalonyl mutase (Mut) mRNA [6]: not
- protection from reduced expression of pyruvate dehydrogenase (Pdha1) mRNA [6]: protected
- protection from reduced expression of succinate dehydrogenase (Sdha) mRNA [6]: protected
- difference in mean hind limb grip strength vs control diet (wild-type mice): no observable difference
